What was measured:
[1] = molecular target: T1, Recombinant human PI3Kγ (full length human PI3K p110γ) (Homo sapiens, UniProt P48736); test: Kinase assay of PI3Kγ (solid-phase lipid kinase assay); assay type: biochemical; conditions: Table 1, isozyme not given; read-out: in vitro
T1 construct: full length human PI3K p110γ fused with a His6-tag at the C-terminus; His6 (C); purchased ALEXIS BIOCHEMICALS #201-055-C010; host or cells: S. frugiperda 9 insect cells
Description: [Determination of IC50 Values of Compounds in Kinase Assay of PI3Kγ]
Chemicals and Assay Materials
LABORATORIES (Toronto, Canada). Recombinant human PI3Kγ (full length human PI3K p110γ fused with a His6-tag at the C-terminus expressed in S. frugiperda 9 insect cells) was obtained from ALEXIS BIOCHEMICALS (#201-055-C010; San Diego, Calif.). […] BIOTECH (Buckinghamshire, UK) and ROCHE DIAGNOSTICS (Mannheim, Germany), respectively. Scintillation cocktails and MicroScint PS™ were purchased from PACKARD (Meriden, Conn.). Maxisorp™ plates were purchased from NALGE NUNC INTERNATIONAL K.K. (Tokyo, Japan). All other chemicals not further specified were from WAKO PURE CHEMICALS (Osaka, Japan).
Solid-Phase Lipid Kinase Assay
The plates were subsequently air-dried by incubation for at least 2 hours in a fume hood. The reaction was set up by mixing 25 μl/well of assay buffer 2× (100 mM MOPSO/NaOH, 0.2 M NaCl, pH 7.0, 8 mM MgCl2, 2 mg/ml BSA (fatty acid-free)) and 50 ng/well PI3Kγ in the lipid pre-coated plate and 10× test compounds were added in 2% DMSO. The reaction was started by adding 20 μl/well of ATP mix (final 10 μM ATP; 0.05 μCi/well [γ^33P]ATP). After incubation at RT for 2 hours, the reaction was terminated by adding 50 μl/well stop solution (50 mM EDTA, pH 8.0). The plate was then washed twice with Tris-buffered saline (TBS, pH 7.4). MicroScint PS™ (PACKARD) scintillation mix was added at 100 μl/well, and radioactivity was counted by using a TopCount™ (PACKARD) scintillation counter.
The inhibition percent at each concentration of compound was calculated, and IC50 values were determined from the inhibition of curve.

T1 sequence (P48736 whole entry, the tested form may be a part): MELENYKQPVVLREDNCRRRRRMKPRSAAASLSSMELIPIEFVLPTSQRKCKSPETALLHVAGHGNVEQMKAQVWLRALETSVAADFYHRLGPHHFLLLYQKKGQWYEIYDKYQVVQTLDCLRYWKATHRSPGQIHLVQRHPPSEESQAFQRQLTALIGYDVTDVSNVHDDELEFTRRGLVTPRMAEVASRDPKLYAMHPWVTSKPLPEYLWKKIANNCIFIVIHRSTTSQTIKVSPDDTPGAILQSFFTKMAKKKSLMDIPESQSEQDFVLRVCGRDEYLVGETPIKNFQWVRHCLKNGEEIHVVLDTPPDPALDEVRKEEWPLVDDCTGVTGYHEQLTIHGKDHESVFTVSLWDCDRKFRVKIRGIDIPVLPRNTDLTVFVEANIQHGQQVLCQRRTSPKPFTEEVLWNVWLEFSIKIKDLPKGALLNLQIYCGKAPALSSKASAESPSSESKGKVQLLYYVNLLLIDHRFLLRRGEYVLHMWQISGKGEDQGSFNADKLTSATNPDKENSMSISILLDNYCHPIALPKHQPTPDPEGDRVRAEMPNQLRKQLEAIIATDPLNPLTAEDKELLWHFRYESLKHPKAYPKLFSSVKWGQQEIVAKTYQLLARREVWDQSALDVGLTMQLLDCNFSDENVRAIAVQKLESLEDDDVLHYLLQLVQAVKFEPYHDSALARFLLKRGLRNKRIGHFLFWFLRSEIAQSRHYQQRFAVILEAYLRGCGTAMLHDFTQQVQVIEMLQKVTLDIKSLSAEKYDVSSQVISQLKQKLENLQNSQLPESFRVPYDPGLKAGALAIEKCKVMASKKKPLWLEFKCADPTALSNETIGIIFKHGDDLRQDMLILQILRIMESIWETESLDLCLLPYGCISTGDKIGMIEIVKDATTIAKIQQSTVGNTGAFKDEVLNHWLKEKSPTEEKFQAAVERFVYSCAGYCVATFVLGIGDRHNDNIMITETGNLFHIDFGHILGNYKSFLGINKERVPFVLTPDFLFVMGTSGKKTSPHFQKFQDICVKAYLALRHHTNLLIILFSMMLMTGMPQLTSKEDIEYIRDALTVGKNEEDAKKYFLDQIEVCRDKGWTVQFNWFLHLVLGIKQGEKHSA

Cc1ccc2c(c1OCCN1CCOCC1)N=C(/C=C(\O)c1cccnc1)N1CCN=C21 [Example 1-39]
IC50 [1]: 100 to 500 nM
melting point: 217 °C

CC(=O)Nc1ccc(/C(O)=C/C2=Nc3c(ccc(C)c3OCCN3CCOCC3)C3=NCCN23)cn1.Cl [Example 1-41]
IC50 [1]: < 100 nM
melting point: 271 °C

COc1cc(OC)c2c(c1)C1=NCCN1C(/C=C(\O)c1cccnc1)=N2 [Example 1-42]
IC50 [1]: < 100 nM
melting point: 218 °C

CC(=O)Nc1ccc(/C(O)=C/C2=Nc3c(C)cc(Br)cc3C3=NCCN23)cn1.Cl [Example 1-44]
IC50 [1]: 100 to 500 nM
melting point: > 290 °C

Cc1cc(Br)c2c(c1)C1=NCCN1C(/C=C(\O)c1cccnc1)=N2.Cl [Example 1-45]
IC50 [1]: 100 to 500 nM
melting point: > 290 °C

CC(=O)Nc1ccc(/C(O)=C/C2=Nc3c(Br)cc(C)cc3C3=NCCN23)cn1.Cl [Example 1-46]
IC50 [1]: < 100 nM
melting point: > 285 °C

Cc1cc(Br)c2c(c1)C1=NCCN1C(/C=C(\O)c1ccc3[nH]cnc3c1)=N2 [Example 1-47]
IC50 [1]: 100 to 500 nM
melting point: > 285 °C

COc1cc2c(cc1OC)C1=NCCN1C(/C=C(\O)c1ccc(C)nc1)=N2 [Example 1-49]
IC50 [1]: < 100 nM
melting point: 200 to 204 °C

COc1cc2c(cc1OC)C1=NCCN1C(/C=C(\O)c1ccc(C)nc1)=N2.Cl [Example 1-50]
IC50 [1]: 100 to 500 nM
melting point: 260 °C (dec.)

COc1cc2c(cc1OC)C1=NCCN1C(/C=C(\O)c1ccc(NC(C)=O)nc1)=N2.Cl [Example 1-51]
IC50 [1]: 100 to 500 nM
melting point: 275 to 280 °C

CNc1ccc(/C(O)=C/C2=Nc3cc(OC)c(OC)cc3C3=NCCN23)cn1 [Example 1-52]
IC50 [1]: 100 to 500 nM
melting point: 321 to 325 °C

COc1cc2c(cc1OC)C1=NCCN1C(/C=C(\O)c1ccc(NCCO)nc1)=N2 [Example 1-54]
IC50 [1]: 100 to 500 nM
melting point: 207 °C

COc1cc2c(cc1OC)C1=NCCN1C(/C=C(\O)c1ccc(Cl)nc1)=N2 [Example 1-55]
IC50 [1]: 100 to 500 nM
melting point: 283 °C

COc1cc2c(cc1OC)C1=NCCN1C(/C=C(\O)c1ccc3[nH]cnc3c1)=N2.Cl [Example 1-57]
IC50 [1]: < 100 nM
melting point: 240 °C (dec.)

COc1cc2c(cc1OC)C1=NCCN1C(/C=C(\O)c1cccs1)=N2 [Example 1-58]
IC50 [1]: 100 to 500 nM
melting point: 250 °C

COc1cc2c(cc1OC)C1=NCCN1C(/C=C(\O)c1sc(C)nc1C)=N2 [Example 1-60]
IC50 [1]: < 100 nM
melting point: 292 °C

COc1cc2c(c(OC)c1C)N=C(/C=C(\O)c1cccnc1)N1CCN=C21 [Example 1-62]
IC50 [1]: < 100 nM
melting point: 278 °C

COc1cc2c(c(OC)c1C)N=C(/C=C(\O)c1ccc(NC(C)=O)nc1)N1CCN=C21 [Example 1-64]
IC50 [1]: < 100 nM
melting point: > 285 °C

COc1cc2c(c(OC)c1C)N=C(/C=C(\O)c1ccc3[nH]cnc3c1)N1CCN=C21 [Example 1-66]
IC50 [1]: 100 to 500 nM
melting point: 280 °C

COc1cccc2c1N=C(/C=C(\O)c1cccnc1)N1CCN=C21 [Example 1-68]
IC50 [1]: < 100 nM
melting point: 275 °C

Cl.O/C(=C\C1=Nc2c(F)cccc2C2=NCCN12)c1cccnc1 [Example 1-70]
IC50 [1]: < 100 nM
melting point: 218 °C

Cl.O/C(=C\C1=Nc2c(F)cccc2C2=NCCN12)c1cccnc1 [Example 1-71]
IC50 [1]: 100 to 500 nM
melting point: 303 °C

O/C(=C\C1=Nc2c(Cl)cccc2C2=NCCN12)c1cccnc1 [Example 1-72]
IC50 [1]: 100 to 500 nM
melting point: 210 °C (dec.)

O/C(=C\C1=Nc2c(Br)cccc2C2=NCCN12)c1cccnc1 [Example 1-73]
IC50 [1]: 100 to 500 nM
melting point: 120 °C (dec.)

Cc1cccc2c1N=C(/C=C(\O)c1cccnc1)N1CCN=C21 [Example 1-75]
IC50 [1]: 100 to 500 nM
melting point: 248 °C

CC(=O)Nc1ccc(/C(O)=C/C2=Nc3c(C)cccc3C3=NCCN23)cn1 [Example 1-77]
IC50 [1]: < 100 nM
melting point: > 285 °C

Cc1cccc2c1N=C(/C=C(\O)c1ccc3[nH]cnc3c1)N1CCN=C21.Cl [Example 1-79]
IC50 [1]: < 100 nM
melting point: > 285 °C

O/C(=C\C1=Nc2c(cccc2C(F)(F)F)C2=NCCN12)c1cccnc1 [Example 1-80]
IC50 [1]: 100 to 500 nM
melting point: 275 °C

O/C(=C\C1=Nc2c(CN3CCOCC3)cccc2C2=NCCN12)c1cccnc1 [Example 1-82]
IC50 [1]: 100 to 500 nM
melting point: 198 to 202 °C (dec.)

Cl.O/C(=C\C1=Nc2c(O)cccc2C2=NCCN12)c1cccnc1 [Example 1-83]
IC50 [1]: 100 to 500 nM
melting point: > 250 °C

O/C(=C\C1=Nc2c(OCCN3CCOCC3)cccc2C2=NCCN12)c1cccnc1 [Example 1-84]
IC50 [1]: 100 to 500 nM
melting point: 195 to 196 °C

CN(C)CCOc1cccc2c1N=C(/C=C(\O)c1cccnc1)N1CCN=C21 [Example 1-86]
IC50 [1]: 100 to 500 nM
melting point: 186 to 187 °C

CN(C)CCCOc1cccc2c1N=C(/C=C(\O)c1cccnc1)N1CCN=C21 [Example 1-87]
IC50 [1]: 100 to 500 nM
melting point: 235 °C (dec.)

O/C(=C\C1=Nc2c(OCC3CC3)cccc2C2=NCCN12)c1cccnc1 [Example 1-88]
IC50 [1]: 100 to 500 nM
melting point: 203 °C (dec.)

CC(C)(C)OC(=O)COc1cccc2c1N=C(/C=C(\O)c1cccnc1)N1CCN=C21.Cl [Example 1-90]
IC50 [1]: < 100 nM
melting point: 222 to 223 °C

OCCOc1cccc2c1N=C(/C=C(\O)c1cccnc1)N1CCN=C21 [Example 1-91]
IC50 [1]: 100 to 500 nM
melting point: 211 to 212 °C

OCCCOc1cccc2c1N=C(/C=C(\O)c1cccnc1)N1CCN=C21 [Example 1-92]
IC50 [1]: < 100 nM
melting point: 203 to 205 °C

CC(=O)Oc1cccc2c1N=C(/C=C(\O)c1cccnc1)N1CCN=C21 [Example 1-93]
IC50 [1]: 100 to 500 nM
melting point: 225 to 226 °C

O/C(=C\C1=Nc2cc(N3CCOCC3)ccc2C2=NCCN12)c1cccnc1 [Example 1-94]
IC50 [1]: 100 to 500 nM
melting point: 282 °C

CC(=O)Nc1ccc(/C(O)=C/C2=Nc3cc(N4CCOCC4)ccc3C3=NCCN23)cn1 [Example 1-96]
IC50 [1]: < 100 nM
melting point: 269 °C (dec.)

O/C(=C\C1=Nc2cc(N3CCOCC3)ccc2C2=NCCN12)c1cncc(O)c1 [Example 1-98]
IC50 [1]: < 100 nM
melting point: 337 °C (dec.)

O/C(=C\C1=Nc2cc(N3CCOCC3)ccc2C2=NCCN12)c1ccc2[nH]cnc2c1 [Example 1-100]
IC50 [1]: < 100 nM
melting point: 232 °C

CC(=O)Nc1ccc(/C(O)=C/C2=Nc3cc(N4CCCC(O)C4)ccc3C3=NCCN23)cn1.Cl (centres unmarked) [Example 1-102]
IC50 [1]: 100 to 500 nM
melting point: 238 °C (dec.)

CN1CCN(c2ccc3c(c2)N=C(/C=C(\O)c2cccnc2)N2CCN=C32)CC1.Cl [Example 1-104]
IC50 [1]: 100 to 500 nM
melting point: 288 °C

CC(=O)Nc1ccc(/C(O)=C/C2=Nc3cc(N4CCN(C)CC4)ccc3C3=NCCN23)cn1 [Example 1-105]
IC50 [1]: 100 to 500 nM
melting point: 292 °C (dec.)

CN1CCN(c2ccc3c(c2)N=C(/C=C(\O)c2ccc4[nH]cnc4c2)N2CCN=C32)CC1 [Example 1-107]
IC50 [1]: < 100 nM
melting point: 207 °C

CN1CCN(c2ccc3c(c2)N=C(/C=C(\O)c2ccc4[nH]cnc4c2)N2CCN=C32)CC1.Cl [Example 1-108]
IC50 [1]: 100 to 500 nM
melting point: > 300 °C

CN(CCO)c1ccc2c(c1)N=C(/C=C(\O)c1ccc3[nH]cnc3c1)N1CCN=C21.Cl [Example 1-110]
IC50 [1]: 100 to 500 nM
melting point: 231 °C (dec.)

O/C(=C\C1=Nc2cc(CN3CCOCC3)ccc2C2=NCCN12)c1cccnc1 [Example 1-111]
IC50 [1]: 100 to 500 nM
melting point: 204 °C

CC(=O)Nc1ccc(/C(O)=C/C2=Nc3cc(CN4CCOCC4)ccc3C3=NCCN23)cn1 [Example 1-113]
IC50 [1]: 100 to 500 nM
melting point: 245 °C

O/C(=C\C1=Nc2cc(CN3CCOCC3)ccc2C2=NCCN12)c1ccc2[nH]cnc2c1 [Example 1-115]
IC50 [1]: 100 to 500 nM
melting point: 219 °C

O/C(=C\C1=Nc2cc(Cl)ccc2C2=NCCN12)c1cccnc1 [Example 1-116]
IC50 [1]: 100 to 500 nM
melting point: 226 °C

Cl.O/C(=C\C1=Nc2cc(Br)ccc2C2=NCCN12)c1cccnc1 [Example 1-118]
IC50 [1]: 100 to 500 nM
melting point: 233 °C

Cc1ccc2c(c1)N=C(/C=C(\O)c1cccnc1)N1CCN=C21 [Example 1-119]
IC50 [1]: 100 to 500 nM
melting point: 224 °C

O/C(=C\C1=Nc2cc(C(F)(F)F)ccc2C2=NCCN12)c1cccnc1 [Example 1-121]
IC50 [1]: 500 to 2000 nM
melting point: 264 °C
